Assay results taken from patent US7999137B2, “Pesticide bi-phenyl-amidine derivatives” (Bayer Cropscience AG, priority 2006, dated 2011).

Columns and labels:
[1] = logP by HPLC on reversed-phase column (C 18), EEC Directive 79/831 Annex V.A8; format: physicochemical; settings: HPLC reversed-phase C 18; 40° C.; 0.1% aqueous formic acid and acetonitrile, linear gradient 10% to 90% acetonitrile
Experimental: Temperature: 40° C.; Mobile phases: 0.1% aqueous formic acid and acetonitrile; linear gradient from 10% acetonitrile to 90% acetonitrile.
Calibration was carried out using unbranched alkan-2-ones (comprising 3 to 16 carbon atoms) with known logP values (determination of the logP values by the retention times using linear interpolation between two successive alkanones).

Aedes aegypti larvae = test: In vivo protective test on Aedes aegypti (AEDSAE U), larvae mortality; settings: concentration and time not stated
Experimental: In Vivo Protective Test on Aedes Aegypti (AEDSAE U)
To produce a suitable preparation of the active compound, the active compound is mixed with the stated amount of solvent, and the concentrate is diluted with staining water to the desired concentration.
Aedes aegypti larvae are pipetted with a preparation of active ingredient of the desired concentration.
After the specified period of time, mortality in % is determined. 100% means that all larvae have been killed, a 0% means that none of the larvae have been killed.

Heliotis virescens = test: Test on Heliotis virescens (HELIVI spray application), egg mortality on soybean leaf sections; format: in vivo; settings: eggs on sprayed soybean leaf sections; concentration and time not stated
From the text: Heliotis virescens—Test on Heliotis virescens (HELIVI Spray Application)
To produce a suitable preparation of the active compound, 1 part by weight of active compound is mixed with the stated amount of solvent and emulsifier, and the concentrate is dilutes with emulsifier-containing water to the desired concentration.
Soybean (Glycine max.) leaf sections are sprayed with a preparation of the active ingredient of the desired concentration. Once dry, the leaf sections are infested with eggs of cotton bollworm (Heliotis virescens).
After the specified period of time, mortality in % is determined. 100% means that all eggs have been killed and 0% means that none of the eggs have been killed.

| SMILES | log p (HCOOH) [1] | activity (mortality of larvae) (Aedes aegypti larvae) | activity (mortality of eggs) (Heliotis virescens) |
| --- | --- | --- | --- |
| CCN(C)C=Nc1cc(C)c(-c2ccc(Oc3ccccc3)cc2)cc1C [Compound 47] | 2.56 | good activity | – |
| CCN(C)C=Nc1ccc(-c2ccc(F)c(Cl)c2)cc1F [Compound 9] | 1.78 | good activity | – |
| CCN(C)C=Nc1cc(F)c(-c2ccc(Cl)cc2)cc1C [Compound 99] | 2.23 | good activity | – |
| CCN(C)C=Nc1ccc(-c2cccc(Cl)c2)cc1C [Compound 128] | 2.01 | good activity | – |
| CCN(C)C=Nc1ccc(-c2ccc(OC(F)(F)F)cc2)c(Cl)c1 [Compound 100] | 2.15 | good activity | – |
| CCN(C)C=Nc1ccc(-c2ccc(C(F)(F)F)cc2)cc1C [Compound 127] | 2.17 | good activity | – |
| CCN(C)C=Nc1ccc(-c2ccc(Cl)c(C(F)(F)F)c2)cc1C(F)(F)F [Compound 19] | 2.90 | good activity | – |
| CC(C)N(C)C=Nc1ccc(-c2ccc(OC(F)(F)F)cc2)c(Cl)c1 [Compound 105] | 2.42 | good activity | – |
| CCN(C)C=Nc1ccc(-c2ccc(C(C)(C)C)cc2)cc1C [Compound 129] | 2.67 | good activity | – |
| CCN(C)C=Nc1ccc(-c2ccc(Cl)c(C(F)(F)F)c2)cc1Cl [Compound 18] | 2.19 | good activity | – |
| Cc1cc(-c2ccc(Cl)cc2)c(F)cc1N=CN(C)C(C)C [Compound 104] | 2.22 | good activity | – |
| CCN(C)C=Nc1ccc(-c2ccc(C(F)(F)F)cc2)cc1F [Compound 26] | 1.87 | good activity | good activity |
| CCN(C)C=Nc1ccc(-c2ccc(C=NOC)cc2)cc1F [Compound 77] | 1.73 | good activity | – |
| CCc1cc(-c2ccc(Cl)c(Cl)c2)ccc1N=CN(C)CC [Compound 54] | 2.37 | good activity | – |
